From ChEMBL document CHEMBL4130554, “Inducing Secondary Metabolite Production by Combined Culture of Talaromyces aculeatus and Penicillium variabile” (J Nat Prod, 2017)

These molecules were tested on HCT-116 (assay: Cytotoxicity against human HCT116 cells by SRB method).

SMILES | IC50 [µM]
CC[C@H](C)/C=C/C=C(\C)C[C@@H](C)/C=C/C=C/[C@H]1OC(=O)[C@H](O)[C@@H]2O[C@]12C | > 50
COC(=O)[C@@H]1O[C@@H](/C=C/C=C/[C@H](C)C/C(C)=C/C=C/[C@@H](C)CCO)[C@@]2(C)O[C@@H]12 | > 50
CC[C@H](C)/C=C/C=C(\C)C[C@@H](C)/C=C/C=C/[C@H]1OC(=O)C=C[C@]1(C)O | 1.4
CC[C@H](C)/C=C/C=C(\C)C[C@@H](C)/C=C/C=C/[C@@H]1O[C@@H](C(=O)OC)[C@@H]2O[C@]12C | > 50
CC[C@@H](/C=C/C=C(\C)C[C@@H](C)/C=C/C=C/[C@@H]1O[C@@H](C(=O)OC)[C@@H]2O[C@]12C)CO | > 50

These molecules were tested on HL-60 (assay: Cytotoxicity against human HL60 cells by MTT method).

SMILES | IC50 [µM]
CC[C@H](C)/C=C/C=C(\C)C[C@@H](C)/C=C/C=C/[C@H]1OC(=O)[C@H](O)[C@@H]2O[C@]12C | > 50
COC(=O)[C@@H]1O[C@@H](/C=C/C=C/[C@H](C)C/C(C)=C/C=C/[C@@H](C)CCO)[C@@]2(C)O[C@@H]12 | > 50
CC[C@H](C)/C=C/C=C(\C)C[C@@H](C)/C=C/C=C/[C@H]1OC(=O)C=C[C@]1(C)O | 1.2
CC[C@H](C)/C=C/C=C(\C)C[C@@H](C)/C=C/C=C/[C@@H]1O[C@@H](C(=O)OC)[C@@H]2O[C@]12C | > 50
CC[C@@H](/C=C/C=C(\C)C[C@@H](C)/C=C/C=C/[C@@H]1O[C@@H](C(=O)OC)[C@@H]2O[C@]12C)CO | > 50

The molecules below were run on MCF7 (assay: Cytotoxicity against human MCF7 cells by SRB method).
Type: functional, cell-based

SMILES | IC50 [µM]
CC[C@H](C)/C=C/C=C(\C)C[C@@H](C)/C=C/C=C/[C@H]1OC(=O)[C@H](O)[C@@H]2O[C@]12C | > 50
COC(=O)[C@@H]1O[C@@H](/C=C/C=C/[C@H](C)C/C(C)=C/C=C/[C@@H](C)CCO)[C@@]2(C)O[C@@H]12 | > 50
CC[C@H](C)/C=C/C=C(\C)C[C@@H](C)/C=C/C=C/[C@H]1OC(=O)C=C[C@]1(C)O | 9.8
CC[C@H](C)/C=C/C=C(\C)C[C@@H](C)/C=C/C=C/[C@@H]1O[C@@H](C(=O)OC)[C@@H]2O[C@]12C | > 50
CC[C@@H](/C=C/C=C(\C)C[C@@H](C)/C=C/C=C/[C@@H]1O[C@@H](C(=O)OC)[C@@H]2O[C@]12C)CO | > 50
COc1cccc2c1C(=O)c1c(O)c3c(c(O)c1C2=O)C[C@@](O)(C(=O)CO)C[C@@H]3O[C@H]1C[C@H](N)[C@H](O)[C@H](C)O1 [DOXORUBICIN] | 0.6

These molecules were tested on K562 (assay: Cytotoxicity against human K562 cells by MTT method).
Type: functional, cell-based

SMILES | IC50 [µM]
CC[C@H](C)/C=C/C=C(\C)C[C@@H](C)/C=C/C=C/[C@H]1OC(=O)[C@H](O)[C@@H]2O[C@]12C | > 50
COC(=O)[C@@H]1O[C@@H](/C=C/C=C/[C@H](C)C/C(C)=C/C=C/[C@@H](C)CCO)[C@@]2(C)O[C@@H]12 | > 50
CC[C@H](C)/C=C/C=C(\C)C[C@@H](C)/C=C/C=C/[C@H]1OC(=O)C=C[C@]1(C)O | 2.9
CC[C@H](C)/C=C/C=C(\C)C[C@@H](C)/C=C/C=C/[C@@H]1O[C@@H](C(=O)OC)[C@@H]2O[C@]12C | > 50
CC[C@@H](/C=C/C=C(\C)C[C@@H](C)/C=C/C=C/[C@@H]1O[C@@H](C(=O)OC)[C@@H]2O[C@]12C)CO | > 50
COc1cccc2c1C(=O)c1c(O)c3c(c(O)c1C2=O)C[C@@](O)(C(=O)CO)C[C@@H]3O[C@H]1C[C@H](N)[C@H](O)[C@H](C)O1 [DOXORUBICIN] | 0.6

These molecules were tested on HeLa (assay: Cytotoxicity against human HeLa cells by SRB method).
Type: functional, cell-based

SMILES | IC50 [µM]
CC[C@H](C)/C=C/C=C(\C)C[C@@H](C)/C=C/C=C/[C@H]1OC(=O)[C@H](O)[C@@H]2O[C@]12C | > 50
COC(=O)[C@@H]1O[C@@H](/C=C/C=C/[C@H](C)C/C(C)=C/C=C/[C@@H](C)CCO)[C@@]2(C)O[C@@H]12 | > 50
CC[C@H](C)/C=C/C=C(\C)C[C@@H](C)/C=C/C=C/[C@H]1OC(=O)C=C[C@]1(C)O | 5.5
CC[C@H](C)/C=C/C=C(\C)C[C@@H](C)/C=C/C=C/[C@@H]1O[C@@H](C(=O)OC)[C@@H]2O[C@]12C | > 50
CC[C@@H](/C=C/C=C(\C)C[C@@H](C)/C=C/C=C/[C@@H]1O[C@@H](C(=O)OC)[C@@H]2O[C@]12C)CO | > 50
COc1cccc2c1C(=O)c1c(O)c3c(c(O)c1C2=O)C[C@@](O)(C(=O)CO)C[C@@H]3O[C@H]1C[C@H](N)[C@H](O)[C@H](C)O1 [DOXORUBICIN] | 0.5

What follows are molecules tested on A549 (assay: Cytotoxicity against human A549 cells by SRB method).

SMILES | IC50 [µM]
CC[C@H](C)/C=C/C=C(\C)C[C@@H](C)/C=C/C=C/[C@H]1OC(=O)[C@H](O)[C@@H]2O[C@]12C | > 50
COC(=O)[C@@H]1O[C@@H](/C=C/C=C/[C@H](C)C/C(C)=C/C=C/[C@@H](C)CCO)[C@@]2(C)O[C@@H]12 | > 50
CC[C@H](C)/C=C/C=C(\C)C[C@@H](C)/C=C/C=C/[C@H]1OC(=O)C=C[C@]1(C)O | 5.1
CC[C@H](C)/C=C/C=C(\C)C[C@@H](C)/C=C/C=C/[C@@H]1O[C@@H](C(=O)OC)[C@@H]2O[C@]12C | > 50
CC[C@@H](/C=C/C=C(\C)C[C@@H](C)/C=C/C=C/[C@@H]1O[C@@H](C(=O)OC)[C@@H]2O[C@]12C)CO | > 50
